Experiments:
Format in all cases: cell-based
[1] = system: human acute myeloid leukemia cell lines; test: Anti-tumor effect on human acute myeloid leukemia cell lines (Cell Counting Kit-8); settings: administration alone, 100 to 1000 nmol/L, 48 hours
Method: The compound prepared in Example 3 (Compound B) was evaluated for anti-tumor activity against several human acute myeloid leukemia cell lines shown in the table of FIG. 13.
The cell lines above were suspended in medium (RPMI 1640 containing 10% FBS and 1% Penicillin-Streptomycin), respectively, and seeded into 96-well plates at a density of 5.0×10^4 cells/well. Immediately after seeding, mediums containing Compound B and Vehicle (0.1% at the final concentration of DMSO solution after addition to the medium), respectively, were added to each well and mixed well. The final concentration of Compound B after addition to the medium was prepared to be 100 to 1000 nmol/L, respectively. After culturing the cell lines for 48 hours at 37° C. and 5% CO2, 10 μL of Cell Counting Kit-8 (Dojindo) was added to each well, and after incubation for 60 minutes, the absorbance (450 nm) in each well was measured using a microplate reader. EC50 value was calculated from the absorbance value using Graphpad prism (Graphpad Software) to evaluate the effect of Compound B on cell proliferation. […] Relative cell count was calculated according to the following formula. Relative minimum cell count represents the minimum value of the above values.
Relative cell count (%)=(Absorbance (450 nm) in addition of Compound B−blank)/(Absorbance (450 nm) in addition of Vehicle (0.1% DMSO)−blank)×100 [Formula 1]

[2] = system: IRF (Interferon Regulatory Factor) pathway; test: Effect on IRF (Interferon Regulatory Factor) pathway, Quanti-luc reporter cells; settings: activation of the IRF pathway, luminescence, about 24 hours incubation
Method: The cells mainly described at lines 12-20 of the right column on page 183 in Mol Immunol. 2017, Vol. 90, p. 182-189 were suspended in RPMI medium to prepare 2×10^6 cells/mL of cell suspension. 50 μL of the cell suspensions were dispensed into a 96-well plate, to which 50 μL of 6 to 20,000 nmol/L compound solutions were added. After adding the compound, the mixture thereof was incubated at 37° C. for about 24 hours. After incubation, 10 μL of cell suspensions were collected from each well, which were mixed with 50 μL of Quanti-luc (Invivogen). Then, the activation of the IRF pathway was measured by detecting luminescence using a microplate reader (Molecular Devices).

[3] = system: human acute myeloid leukemia cell lines (KG-1α, THP-1 and CMK); test: Anti-tumor effects in combination with anti-neoplastic agents, human acute myeloid leukemia cell lines; settings: combination with Compound B 10 to 1000 nmol/L, 48 hours, absorbance 450 nm
Method: (§1) The anti-tumor effects of the STING agonistic compounds pertaining to the present invention and combination thereof with anti-neoplastic agents were evaluated on several human acute myeloid leukemia cell lines (KG-1α, THP-1 and CMK) and human B-cell lymphoma cell lines (DOHH2 and OLI-Ly3) below.
The cell lines above were suspended in medium (RPMI 1640 containing 10% FBS and 1% Penicillin-Streptomycin), respectively, and seeded into 96-well plates at a density of 2.5 to 5×10^4 cells/well. Immediately after seeding, mediums containing Compound B prepared, respectively, such that the final concentrations after addition to the mediums become 0, 10, 30, 100, 300, and 1000 nmol/L and anti-neoplastic agents prepared such that those become the following final concentrations, respectively, were added to each well and mixed well. As a control, DMSO solution prepared such that the final concentration becomes 0.10% after addition to the medium was added thereto, separately. • Venetoclax (final concentrations: 0, 1, 10, 100, 1000, and 10000 nmol/L, respectively), • Cytarabine (final concentrations: 0, 1, 10, 100, 1000, and 10000 nmol/L, respectively), • Azacitidine (final concentrations: 0, 1, 10, 100, 1000, and 10000 nmol/L, respectively), and • Navitoclax (final concentrations: 0, 50, 500, and 5000 nmol/L, respectively) (the concentration of Compound B in combination with Navitoclax is 1000 nmol/L).
After culturing the cell lines for 48 hours at 37° C. and 5% CO2, 10 μL of Cell Counting Kit-8 (Dojindo) was added to each well, and after incubation for 60 minutes, the absorbance (450 nm) in each well was measured using a microplate reader. FIGS. 13, 14, and 15 show results thereof, respectively. In the figures, the “signal intensity” on the vertical axis represents the absorbance value (450 nm), and the lower the value, the higher the anti-tumor effect.

[4] = system: human B-cell lymphoma cell lines (DOHH2 and OLI-Ly3); test: Anti-tumor effects in combination with Navitoclax, human B-cell lymphoma cell lines; settings: combination with Compound B 1000 nmol/L, DOHH2 and OLI-Ly3, 48 hours
Method: as §1
The cell lines above were suspended in medium (RPMI 1640 containing 10% FBS and 1% Penicillin-Streptomycin), respectively, and seeded into 96-well plates at a density of 2.5 to 5×10^4 cells/well. Immediately after seeding, mediums containing Compound B prepared, respectively, such that the final concentrations after addition to the mediums become 0, 10, 30, 100, 300, and 1000 nmol/L and anti-neoplastic agents prepared such that those become the following final concentrations, respectively, were added to each well and mixed well. […]
After culturing the cell lines for 48 hours at 37° C. and 5% CO2, 10 μL of Cell Counting Kit-8 (Dojindo) was added to each well, and after incubation for 60 minutes, the absorbance (450 nm) in each well was measured using a microplate reader. […] In the figures, the “signal intensity” on the vertical axis represents the absorbance value (450 nm), and the lower the value, the higher the anti-tumor effect.

CC(=O)c1cc(-c2ncc(-c3cn[nH]c3)c3onc(N)c23)c(F)cc1N [Example 3, 1-(2-amino-5-(3-amino-7-(1H-pyrazol-4-yl)isoxazolo[4,5-c]pyridin-4-yl)-4-fluorophenyl)ethan-1-one]
anti-tumor effect (cell proliferation) [1]: significant anti-tumor effect
EC50 [2]: 40 nM
anti-tumor activity of Azacitidine [3]: enhanced
anti-tumor activity of Cytarabine [3]: enhanced
anti-tumor activity of Venetoclax [3]: enhanced
anti-tumor activity of Navitoclax [4]: enhanced

— patent US20230141284A1, “CANCER THERAPEUTIC METHOD” (ONO PHARMACEUTICAL CO., LTD., priority 2020, published 2023)
